Values joined by “and” are separate entries in the source; they are usually repeats but may differ in a detail not shown here. Equal entries are not always repeated.
Assay: Compatibility/stability of oleoyl-estrone in oil systems (appearance/color, potency, related substances)
Format: physicochemical
Method: The compatibility of oleoyl-estrone in various oil systems was also assessed. The respective stability of oleoyl-estrone in various oils was assessed following storage at (A) 25° C./60% and relative humidity (RH), (B) 40° C./75% RH, (C) 50° C. and (D) 60° C. in canola oil, safflower oil, Captex and a 2:1 Captex: Labrafil mixture. The stability test methods include appearance/color, potency, and related substances (e.g. impurities or degradant in the oleoyl-estrone and oil mixture).

[1] = in CAPTEX, One Week 25° C./60% RH
[2] = in CAPTEX, One Week 40° C./75% RH
[3] = in CAPTEX, Three Weeks 25° C./60% RH
[4] = in CAPTEX, Three Weeks 40° C./75% RH
[5] = in CAPTEX, Two Weeks 25° C./60% RH
[6] = in CAPTEX, Two Weeks 40° C./75% RH
[7] = in SAFFLOWER, One Week 25° C./60% RH
[8] = in SAFFLOWER, One Week 40° C./75% RH
[9] = in SAFFLOWER, Three Weeks 25° C./60% RH
[10] = in SAFFLOWER, Three Weeks 40° C./75% RH
[11] = in SAFFLOWER, Three Weeks 50° C.
[12] = in SAFFLOWER, Three Weeks 60° C.
[13] = in SAFFLOWER, Two Weeks 25° C./60% RH
[14] = in SAFFLOWER, Two Weeks 40° C./75% RH
[15] = in the mixture of Captex and Labrafil stored at 50° C. and 60° C., three weeks

With `CCCCCCCC/C=C\CCCCCCCC(=O)Oc1ccc2c(c1)CC[C@@H]1[C@@H]2CC[C@]2(C)C(=O)CC[C@@H]12` [oleoyl-estrone, [3(Z)]-3-[(1-oxo-9-octadecenyl)oxy]-estra-1,3,5(10)-trien-17-one] as the compound, how does the “Purity Assay” value (in CANOLA, Two Weeks 60° C.) read?
Its value is 96.7% and 97.9%.

And the “Mean Purity Assay” value [1]?
Its value is 105.2%.

And the “Purity Assay” value [1]?
The value was 102.0% and 108.3%.

And the “Mean Purity Assay” value [2]?
The value was 103.6%.

And the “Purity Assay” value [2]?
Its value is 105.2% and 101.9%.

And the “Mean Purity Assay” value (in CAPTEX, One Week 50° C.)?
The value was 101.2%.

And the “Purity Assay” value (in CAPTEX, One Week 50° C.)?
The value was 99.5% and 102.9%.

What about the “Mean Purity Assay” value (in CAPTEX, One Week 60° C.) of the same compound?
The value was 101.9%.

What about the “Purity Assay” value (in CAPTEX, One Week 60° C.) of the same compound?
Its value is 101.5% and 102.3%.

And the “Mean Purity Assay” value [3]?
Its value is 99.5%.

What about the “Purity Assay” value [3] of the same compound?
Its value is 100.4% and 98.5%.

What about the “Mean Purity Assay” value [4] of the same compound?
The value was 99.1%.

And the “Purity Assay” value [4]?
The value was 99.4% and 98.8%.

What about the “Mean Purity Assay” value (in CAPTEX, Three Weeks 50° C.) of the same compound?
Its value is 106.5%.

And the “Purity Assay” value (in CAPTEX, Three Weeks 50° C.)?
The value was 107.1% and 105.9%.

And the “Mean Purity Assay” value (in CAPTEX, Three Weeks 60° C.)?
Its value is 103.0%.

What about the “Purity Assay” value (in CAPTEX, Three Weeks 60° C.) of the same compound?
The value was 100.7% and 105.3%.

And the “Mean Purity Assay” value (in CAPTEX, Time Zero)?
Its value is 105.4%.

And the “Purity Assay” value (in CAPTEX, Time Zero)?
The value was 105.6% and 105.3% and 104.1% and 106.4%.

And the “Mean Purity Assay” value [5]?
The value was 102.8%.

What about the “Purity Assay” value [5] of the same compound?
Its value is 104.8% and 100.8%.

And the “Mean Purity Assay” value [6]?
Its value is 96.4%.

And the “Purity Assay” value [6]?
Its value is 98.5% and 94.3%.

And the “Mean Purity Assay” value (in CAPTEX, Two Weeks 50° C.)?
Its value is 97.9%.

What about the “Purity Assay” value (in CAPTEX, Two Weeks 50° C.) of the same compound?
Its value is 96.5% and 99.3%.

And the “Mean Purity Assay” value (in CAPTEX, Two Weeks 60° C.)?
Its value is 102.4%.

And the “Purity Assay” value (in CAPTEX, Two Weeks 60° C.)?
Its value is 105.6% and 99.1%.

What about the “Mean Purity Assay” value [7] of the same compound?
The value was 99.1%.

What about the “Purity Assay” value [7] of the same compound?
Its value is 99.4% and 98.7%.

What about the “Mean Purity Assay” value [8] of the same compound?
Its value is 100.9%.

What about the “Purity Assay” value [8] of the same compound?
Its value is 102.6% and 99.2%.

What about the “Mean Purity Assay” value (in SAFFLOWER, One Week 50° C.) of the same compound?
The value was 100.7%.

What about the “Purity Assay” value (in SAFFLOWER, One Week 50° C.) of the same compound?
The value was 100.9% and 100.4%.

And the “Mean Purity Assay” value (in SAFFLOWER, One Week 60° C.)?
The value was 100.8%.

What about the “Purity Assay” value (in SAFFLOWER, One Week 60° C.) of the same compound?
Its value is 99.5% and 102.0%.

What about the “Mean Purity Assay” value [9] of the same compound?
The value was 105.7%.

What about the “Purity Assay” value [9] of the same compound?
Its value is 108.1% and 103.3%.

And the “Mean Purity Assay” value [10]?
The value was 104.6%.

What about the “Purity Assay” value [10] of the same compound?
The value was 102.7% and 106.5%.

And the “Mean Purity Assay” value [11]?
The value was 98.7%.

And the “Purity Assay” value [11]?
The value was 101.0% and 96.4%.

What about the “Mean Purity Assay” value [12] of the same compound?
The value was 105.1%.

And the “Purity Assay” value [12]?
The value was 103.7% and 106.5%.

And the “Mean Purity Assay” value (in SAFFLOWER, Time Zero)?
The value was 103.8%.

What about the “Purity Assay” value (in SAFFLOWER, Time Zero) of the same compound?
The value was 102.1% and 104.8% and 104.7% and 103.5%.

And the “Mean Purity Assay” value [13]?
Its value is 101.6%.

What about the “Purity Assay” value [13] of the same compound?
The value was 105.1% and 98.1%.

And the “Mean Purity Assay” value [14]?
The value was 100.2%.

And the “Purity Assay” value [14]?
Its value is 98.1% and 102.3%.

And the “Mean Purity Assay” value (in SAFFLOWER, Two Weeks 50° C.)?
The value was 96.7%.

What about the “Purity Assay” value (in SAFFLOWER, Two Weeks 50° C.) of the same compound?
The value was 98.3% and 95.1%.

And the “Mean Purity Assay” value (in SAFFLOWER, Two Weeks 60° C.)?
The value was 98.1%.

And the “Purity Assay” value (in SAFFLOWER, Two Weeks 60° C.)?
The value was 99.2% and 96.9%.

What about the Degradation of oleoyl-estrone (in canola oil, safflower oil or Captex, three weeks at 25° C./60% RH, 40° C./75% RH, 50° C. and 60° C.) of the same compound?
Its Degradation of oleoyl-estrone is “no measurable degradation”.

And the Degradation of oleoyl-estrone [15]?
The Degradation of oleoyl-estrone was “measurable degradation”.

What about the Levels of estrone [15] of the same compound?
The Levels of estrone was “increased significantly”.
